# According to patent US8048862B2, “Macrocyclic inhibitors of hepatitis C virus replication” (priority 2008, dated 2011):
# pEC50, pIC50: −log10 of the molar value. Like-named read-outs stand apart in the source and are kept apart here.
# What was measured:
# hepatitis C replicon = hepatitis C replicon EC50; type: cell-based; conditions: Hepatitis C virus, hepatitis C replicon, read-out: EC50
# Description: NS3-NS4 inhibition activity can be determined using known assay methods.
# NS3/NS4 complexes = NS3/NS4 complexes (Hepatitis C virus genotype 1a, UniProt P27958); assay: NS3/NS4 inhibition activity (IC50); type: biochemical
# Sequence of NS3/NS4 complexes (P27958 1027-1657): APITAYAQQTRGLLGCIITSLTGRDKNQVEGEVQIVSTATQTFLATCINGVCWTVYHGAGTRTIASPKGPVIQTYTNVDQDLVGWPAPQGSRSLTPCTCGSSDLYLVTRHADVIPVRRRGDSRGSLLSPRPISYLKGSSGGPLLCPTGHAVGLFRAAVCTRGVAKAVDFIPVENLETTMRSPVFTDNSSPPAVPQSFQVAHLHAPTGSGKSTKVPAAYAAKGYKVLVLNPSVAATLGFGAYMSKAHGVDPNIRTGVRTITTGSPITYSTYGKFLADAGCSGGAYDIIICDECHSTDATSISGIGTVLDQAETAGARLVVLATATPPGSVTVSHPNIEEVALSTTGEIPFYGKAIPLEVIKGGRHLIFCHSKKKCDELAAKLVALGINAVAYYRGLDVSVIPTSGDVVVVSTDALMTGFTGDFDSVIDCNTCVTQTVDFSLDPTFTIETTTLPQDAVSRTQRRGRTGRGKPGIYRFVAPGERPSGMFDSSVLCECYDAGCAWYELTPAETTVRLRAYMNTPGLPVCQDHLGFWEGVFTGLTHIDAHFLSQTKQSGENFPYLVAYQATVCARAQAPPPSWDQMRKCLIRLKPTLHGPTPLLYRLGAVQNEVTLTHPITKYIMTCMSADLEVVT
# Sequence of NS3/NS4 complexes (P27958 1658-1711): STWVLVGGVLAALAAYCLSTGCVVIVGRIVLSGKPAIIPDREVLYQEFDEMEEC
# Method in brief: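 Buffer: 50 mM Tris-HCl (pH 7.5), 10 mM DTT, 25 μM NS4A peptide, 0.6 mM LDAO and 15% glycerol. Assays were run at 23 °C with preformed NS3/NS4 complex, and the compound concentration giving inhibition was derived as an IC50.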
Compound,pEC50 (hepatitis C replicon; Table 2),"pIC50 (NS3/NS4 complexes; Table 2, read-out: IC50)",pEC50 (hepatitis C replicon; Table 3),"pIC50 (NS3/NS4 complexes; Table 3, read-out: IC50)"
CC(C)n1c(O[C@@H]2C[C@H]3C(=O)N[C@]4(C(=O)NS(=O)(=O)C5(C)CC5)C[C@H]4CCCCCCC[C@H](Nc4cc(F)cc(C(F)(F)F)c4)C(=O)N3C2)nc2ccccc21 [Compound 465],6.30 to 7.12,> 8.00,–,–
CC(C)(C)OC(=O)N[C@H]1CCCCC/C=C\[C@@H]2C[C@@]2(C(=O)NS(=O)(=O)C2(C)CC2)NC(=O)[C@@H]2C[C@@H](Oc3nc4ccc(F)cc4s3)CN2C1=O [Compound 1011],–,–,7.00 to 8.00,> 8.00
Cc1ccc2nc(O[C@@H]3C[C@H]4C(=O)N[C@]5(C(=O)NS(=O)(=O)C6(C)CC6)C[C@H]5/C=C\CCCCC[C@H](Nc5ccccc5)C(=O)N4C3)n(C(C)C)c2c1 [Compound 462],7.12 to 8.00,> 8.00,–,–
CC1(S(=O)(=O)NC(=O)[C@@]23C[C@H]2/C=C\CCCCC[C@H](Nc2cccc(C(N)=O)c2)C(=O)N2C[C@H](OC(=O)N4Cc5cccc(F)c5C4)C[C@H]2C(=O)N3)CC1 [Compound 1101],–,–,7.00 to 8.00,> 8.00
CC(C)(C)OC(=O)N[C@H]1CCCCC/C=C\[C@@H]2C[C@@]2(C(=O)NS(=O)(=O)C2CC2)NC(=O)[C@@H]2C[C@@H](Oc3nc4cc(Cl)ccc4o3)CN2C1=O [Compound 1032],–,–,< 7.00,> 8.00
CC1(S(=O)(=O)NC(=O)[C@@]23C[C@H]2/C=C\CCCCC[C@H](Nc2ccc(C#N)cc2)C(=O)N2C[C@H](OC(=O)N4Cc5cccc(F)c5C4)C[C@H]2C(=O)N3)CC1 [Compound 1109],–,–,7.00 to 8.00,> 8.00
COc1cccc(N[C@H]2CCCCC/C=C\[C@@H]3C[C@@]3(C(=O)NS(=O)(=O)C3(C)CC3)NC(=O)[C@@H]3C[C@@H](Oc4cc(-c5nc(C(C)C)cs5)nc5c(C)c(OC)ccc45)CN3C2=O)c1 [Compound 478],6.30 to 7.12,> 8.00,–,–
CC(C)(C)OC(=O)N[C@H]1CCCCC/C=C\[C@@H]2C[C@@]2(C(=O)NS(=O)(=O)C2(C)CC2)NC(=O)[C@@H]2C[C@@H](Oc3nc4ccccc4s3)CN2C1=O [Compound 1008],–,–,> 8.00,> 8.00
CC1(S(=O)(=O)NC(=O)[C@@]23C[C@H]2/C=C\CCCCC[C@H](Nc2ccc(F)c(C(F)(F)F)c2)C(=O)N2C[C@H](OC(=O)N4Cc5cccc(F)c5C4)C[C@H]2C(=O)N3)CC1 [Compound 1120],–,–,> 8.00,> 8.00
COc1ccc2c(O[C@@H]3C[C@H]4C(=O)N[C@]5(C(=O)NS(=O)(=O)C6(C)CC6)C[C@H]5/C=C\CCCCC[C@H](Nc5ccc(F)c(F)c5)C(=O)N4C3)cc(-c3nc(C(C)C)cs3)nc2c1C [Compound 473],> 8.00,> 8.00,–,–
O=C1N[C@]2(C(=O)O)C[C@H]2/C=C\CCCCC[C@H](Nc2ccc(-c3ccccc3)cc2)C(=O)N2C[C@H](Oc3nc4ccccc4s3)C[C@@H]12 [Compound 325],< 6.30,6.30 to 7.12,–,–
CC1(S(=O)(=O)NC(=O)[C@@]23C[C@H]2/C=C\CCCCC[C@H](Nc2ccc(F)cc2)C(=O)N2C[C@H](OC(=O)N4Cc5cccc(F)c5C4)C[C@H]2C(=O)N3)CC1 [Compound 1111],–,–,7.00 to 8.00,> 8.00
CNC(=O)c1cccc(N[C@H]2CCCCC/C=C\[C@@H]3C[C@@]3(C(=O)NS(=O)(=O)C3(C)CC3)NC(=O)[C@@H]3C[C@@H](OC(=O)N4Cc5cccc(F)c5C4)CN3C2=O)c1 [Compound 1112],–,–,< 7.00,> 8.00
CC1(S(=O)(=O)NC(=O)[C@@]23C[C@H]2/C=C\CCCCC[C@H](Nc2cccc(C(F)(F)F)c2)C(=O)N2C[C@H](Oc4nc5ccccc5s4)C[C@H]2C(=O)N3)CC1 [Compound 222],6.30 to 7.12,> 8.00,–,–
CC(C)n1c(O[C@@H]2C[C@H]3C(=O)N[C@]4(C(=O)NS(=O)(=O)C5(C)CC5)C[C@H]4/C=C\CCCCC[C@H](Nc4ccccc4)C(=O)N3C2)nc2cccc(F)c21 [Compound 467],7.12 to 8.00,> 8.00,–,–
Cc1ccc2nc(O[C@@H]3C[C@H]4C(=O)N[C@]5(C(=O)NS(=O)(=O)C6(C)CC6)C[C@H]5/C=C\CCCCC[C@H](Nc5cc(F)cc(C(F)(F)F)c5)C(=O)N4C3)sc2c1 [Compound 350],6.30 to 7.12,> 8.00,–,–
CC1(S(=O)(=O)NC(=O)[C@@]23C[C@H]2/C=C\CCCCC[C@H](Nc2ccc(F)cc2)C(=O)N2C[C@H](Oc4nc5ccccc5s4)C[C@H]2C(=O)N3)CC1 [Compound 349],7.12 to 8.00,> 8.00,–,–
O=C1N[C@]2(C(=O)O)C[C@H]2/C=C\CCCCC[C@H](Nc2cccc(Cl)c2)C(=O)N2C[C@H](Oc3nc4ccccc4s3)C[C@@H]12 [Compound 335],< 6.30,7.12 to 8.00,–,–
CC(C)(C)OC(=O)N[C@H]1CCCCC/C=C\[C@@H]2C[C@@]2(C(=O)NS(=O)(=O)C2CC2)NC(=O)[C@@H]2C[C@@H](Oc3nc4ccc(F)cc4s3)CN2C1=O [Compound 1010],–,–,7.00 to 8.00,> 8.00
CC(=O)N(Cc1ccccc1)[C@H]1CCCCC/C=C\[C@@H]2C[C@@]2(C(=O)NS(=O)(=O)C2(C)CC2)NC(=O)[C@@H]2C[C@@H](Oc3nc4ccccc4s3)CN2C1=O [Compound 315],< 6.30,7.12 to 8.00,–,–

Compound,pEC50 (hepatitis C replicon; Table 2),"pIC50 (NS3/NS4 complexes; Table 2, read-out: IC50)",pEC50 (hepatitis C replicon; Table 3),"pIC50 (NS3/NS4 complexes; Table 3, read-out: IC50)"
CC(C)n1c(O[C@@H]2C[C@H]3C(=O)N[C@]4(C(=O)NS(=O)(=O)C5(C)CC5)C[C@H]4/C=C\CCCCC[C@H](Nc4cc(F)cc(C(F)(F)F)c4)C(=O)N3C2)nc2ccccc21 [Compound 376],> 8.00,> 8.00,–,–
CC(C)Cn1c(O[C@@H]2C[C@H]3C(=O)N[C@]4(C(=O)NS(=O)(=O)N(C)C)C[C@H]4/C=C\CCCCC[C@H](NC(=O)OC(C)(C)C)C(=O)N3C2)nc2ccccc21 [Compound 1129],–,–,> 8.00,> 8.00
COc1ccc2c(O[C@@H]3C[C@H]4C(=O)N[C@]5(C(=O)NS(=O)(=O)C6(C)CC6)C[C@H]5/C=C\CCCCC[C@H](Nc5cccc(OC(F)(F)F)c5)C(=O)N4C3)cc(-c3nc(C(C)C)cs3)nc2c1C [Compound 378],> 8.00,> 8.00,–,–
COc1ccc2c(O[C@@H]3C[C@H]4C(=O)N[C@]5(C(=O)NS(=O)(=O)N(C)C)C[C@H]5/C=C\CCCCC[C@H](Nc5ccc(C(F)(F)F)cc5)C(=O)N4C3)cc(-c3nc(C(C)C)cs3)nc2c1C [Compound 458],7.12 to 8.00,> 8.00,–,–
CC1(S(=O)(=O)NC(=O)[C@@]23C[C@H]2/C=C\CCCCC[C@H](Nc2cccc(C(F)(F)F)c2)C(=O)N2C[C@H](Oc4nc5ccc(Cl)cc5s4)C[C@H]2C(=O)N3)CC1 [Compound 226],6.30 to 7.12,> 8.00,–,–
CC(C)(C)OC(=O)N[C@H]1CCCCC/C=C\[C@@H]2C[C@@]2(C(=O)NS(=O)(=O)Cc2ccccc2)NC(=O)[C@@H]2C[C@@H](OC(=O)N3Cc4cccc(F)c4C3)CN2C1=O [Compound 1086],–,–,< 7.00,> 8.00
CC1(S(=O)(=O)NC(=O)[C@@]23C[C@H]2/C=C\CCCCC[C@H](Nc2ccc(F)c(F)c2)C(=O)N2C[C@H](Oc4nc5ccccc5s4)C[C@H]2C(=O)N3)CC1 [Compound 341],7.12 to 8.00,> 8.00,–,–
COc1ccc2c(O[C@@H]3C[C@H]4C(=O)N[C@]5(C(=O)NS(=O)(=O)C6CC6)C[C@H]5/C=C\CCCCC[C@H](NC(=O)OC(C)(C)C)C(=O)N4C3)cc(-c3ccccc3)nc2c1 [Compound 1075],–,–,> 8.00,> 8.00
COc1ccc2c(O[C@@H]3C[C@H]4C(=O)N[C@]5(C(=O)NS(=O)(=O)N(C)C)C[C@H]5/C=C\CCCCC[C@H](Nc5cc(F)cc(C(F)(F)F)c5)C(=O)N4C3)cc(-c3nc(C(C)C)cs3)nc2c1C [Compound 460],> 8.00,> 8.00,–,–
CC(C)(C)c1csc(N[C@H]2CCCCC/C=C\[C@@H]3C[C@@]3(C(=O)O)NC(=O)[C@@H]3C[C@@H](Oc4nc5ccccc5s4)CN3C2=O)n1 [Compound 119],< 6.30,7.12 to 8.00,–,–
CC1(S(=O)(=O)NC(=O)[C@@]23C[C@H]2/C=C\CCCCC[C@H](Nc2cccc(OC(F)(F)F)c2)C(=O)N2C[C@H](OC(=O)N4Cc5cccc(F)c5C4)C[C@H]2C(=O)N3)CC1 [Compound 1115],–,–,> 8.00,> 8.00
CN(C)S(=O)(=O)NC(=O)[C@@]12C[C@H]1/C=C\CCCCC[C@H](NC(=O)OC(C)(C)C)C(=O)N1C[C@H](Oc3nc4ccccc4[nH]3)C[C@H]1C(=O)N2 [Compound 1144],–,–,< 7.00,> 8.00
Cc1ccc2c(c1)nc(O[C@@H]1C[C@H]3C(=O)N[C@]4(C(=O)NS(=O)(=O)N(C)C)C[C@H]4/C=C\CCCCC[C@H](NC(=O)OC(C)(C)C)C(=O)N3C1)n2C(C)C [Compound 1137],–,–,> 8.00,> 8.00
CC1(S(=O)(=O)NC(=O)[C@@]23C[C@H]2/C=C\CCCCC[C@H](Nc2ccccc2)C(=O)N2C[C@H](Oc4nc5ccc(Br)cc5s4)C[C@H]2C(=O)N3)CC1 [Compound 214],6.30 to 7.12,> 8.00,–,–
COc1ccc2c(O[C@@H]3C[C@H]4C(=O)N[C@]5(C(=O)NS(=O)(=O)C6(C)CC6)C[C@H]5/C=C\CCCCC[C@H](NC(=O)OC(C)(C)C)C(=O)N4C3)cc(-c3nc(C(C)C)cs3)nc2c1C [Compound 1078],–,–,> 8.00,> 8.00
CN(C)S(=O)(=O)NC(=O)[C@@]12C[C@H]1/C=C\CCCCC[C@H](NC(=O)OC(C)(C)C)C(=O)N1C[C@H](Oc3nc4ccccc4n3C3CCCC3)C[C@H]1C(=O)N2 [Compound 1141],–,–,> 8.00,> 8.00
CC(C)n1c(O[C@@H]2C[C@H]3C(=O)N[C@]4(C(=O)NS(=O)(=O)C5CC5)C[C@H]4/C=C\CCCCC[C@H](NC(=O)OC(C)(C)C)C(=O)N3C2)nc2ccccc21 [Compound 1142],–,–,> 8.00,> 8.00
CCn1c(O[C@@H]2C[C@H]3C(=O)N[C@]4(C(=O)NS(=O)(=O)N(C)C)C[C@H]4/C=C\CCCCC[C@H](NC(=O)OC(C)(C)C)C(=O)N3C2)nc2ccccc21 [Compound 1132],–,–,> 8.00,> 8.00
COc1ccc2c(O[C@@H]3C[C@H]4C(=O)N[C@]5(C(=O)NS(=O)(=O)C6(C)CC6)C[C@H]5/C=C\CCCCC[C@H](Nc5ccc(C(F)(F)F)cc5)C(=O)N4C3)cc(-c3nc(C(C)C)cs3)nc2c1C [Compound 445],> 8.00,> 8.00,–,–
